Experimental data taken from patent publication US7939554B2, “Protein phosphatase inhibitors” (The Cleveland Clinic Foundation, priority 2006, dated 2011).

Columns and labels:
[1] = tested on: human peripheral blood; test: induction of IFNγ+ cells in human peripheral blood in vitro (ELISPOT); type: cell-based
Protocol: For induction of human primary IFNγ+ cells, heparinized peripheral blood samples were obtained by vein-puncture from healthy volunteers following an established protocol approved by the Institutional Review Board (IRB) of Cleveland Clinic. To mimic in vivo drug-exposure, human peripheral blood samples were directly treated with different agents without pre-separation of white blood cells from other blood components. Blood samples (0.1 ml/sample) were mixed with the agents, incubated at 37° C. for 4 hrs, diluted with 5 volumes of hypotonic solution (10 mM Tris, pH 7.4; 10 mM NaCl) to lyse RBC and centrifuged to pellet WBCs. The pellets were washed with hypotonic solution one time, re-suspended in RPMI 1640 medium (10% FCS) and used for ELISPOT assays (Human IFNγ ELISPOT Kit, R & D System) to quantify human IFNγα cells as outlined above.

[2] = molecular target: T1, PTPase CD45 (Homo sapiens, UniProt P08575); test: pLck-pY505 levels in L5-treated Jurkat cells; type: cell-based; conditions: FIG. 4D
T1 construct: endogenous in cells; host or cells: Jurkat
T1 sequence (P08575 26-1306): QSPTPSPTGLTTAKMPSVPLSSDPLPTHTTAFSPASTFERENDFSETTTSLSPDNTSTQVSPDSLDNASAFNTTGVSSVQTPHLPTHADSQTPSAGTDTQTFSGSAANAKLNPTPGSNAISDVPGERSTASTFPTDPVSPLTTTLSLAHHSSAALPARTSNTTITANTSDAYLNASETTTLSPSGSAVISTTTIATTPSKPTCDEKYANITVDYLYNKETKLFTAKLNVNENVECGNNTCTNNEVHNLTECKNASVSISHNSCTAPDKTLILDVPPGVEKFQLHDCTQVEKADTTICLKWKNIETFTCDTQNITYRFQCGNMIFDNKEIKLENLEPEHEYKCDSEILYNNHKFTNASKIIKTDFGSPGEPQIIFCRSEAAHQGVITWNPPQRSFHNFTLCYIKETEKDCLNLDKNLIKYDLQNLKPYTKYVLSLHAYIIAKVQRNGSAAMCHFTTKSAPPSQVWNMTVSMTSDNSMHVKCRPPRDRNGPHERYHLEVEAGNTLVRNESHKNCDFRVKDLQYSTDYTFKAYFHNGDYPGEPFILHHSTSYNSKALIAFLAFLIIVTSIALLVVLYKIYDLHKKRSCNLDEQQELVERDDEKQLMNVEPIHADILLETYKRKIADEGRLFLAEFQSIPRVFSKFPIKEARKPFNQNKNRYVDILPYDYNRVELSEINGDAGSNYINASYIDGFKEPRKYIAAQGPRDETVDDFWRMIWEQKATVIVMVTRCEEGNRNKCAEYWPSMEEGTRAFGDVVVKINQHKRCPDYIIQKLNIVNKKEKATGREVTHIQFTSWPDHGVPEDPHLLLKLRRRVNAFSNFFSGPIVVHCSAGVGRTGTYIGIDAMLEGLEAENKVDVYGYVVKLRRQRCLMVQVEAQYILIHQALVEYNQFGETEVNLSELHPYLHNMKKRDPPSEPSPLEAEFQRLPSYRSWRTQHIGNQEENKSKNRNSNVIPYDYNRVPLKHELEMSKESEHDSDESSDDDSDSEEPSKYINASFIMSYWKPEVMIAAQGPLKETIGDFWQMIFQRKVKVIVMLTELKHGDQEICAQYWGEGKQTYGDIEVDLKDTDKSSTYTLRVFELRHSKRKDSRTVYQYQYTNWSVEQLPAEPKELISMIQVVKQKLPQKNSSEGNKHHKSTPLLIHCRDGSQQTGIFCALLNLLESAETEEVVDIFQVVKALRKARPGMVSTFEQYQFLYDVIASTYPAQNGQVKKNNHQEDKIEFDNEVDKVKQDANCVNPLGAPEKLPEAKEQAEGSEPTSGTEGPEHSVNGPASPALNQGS
Protocol: Jurkat cells in culture medium (3×10^6 cells/ml, 1 ml/tube) were treated with agents for designated times at room temperature. After brief centrifuging in a microfuge (4,000 rpm, 2 min), the cell pellet was lysed on ice for 30 min in […] of cold lysis buffer (1% NP40, 50 mM Tris, pH 7.4, 150 mM NaCl, 20 mM NaF, 0.2 mM Na3VO4 and 1 mM Na3MO4) containing a cocktail of proteinase inhibitors (Sigma, 1 tablet/10 ml). The lysates were cleared by centrifuging (14,000 rpm, 10 min) in a microfuge at 4° C. to remove insoluble parts, mixed with equal volume of 2×SDS-PAGE sample buffer, boiled for 5 min and analyzed (˜3×10^5 cells/well) by SDS-PAGE/Western blotting. Relative intensities of phosphotyrosine bands were quantified through densitometry analysis.
To assess the effects of L5 on other phosphatases, pERK1/2 and pLck-pY505 in L5-treated Jurkat cells were quantified. SHP-2 is known to be a positive mediator of pERK1/2 whereas pLck-pY505 is dephosphorylated by PTPase CD45.

[3] = tested on: B16 melanoma cells; test: B16 melanoma cell growth in culture (MTT assay); type: cell-based, mouse; conditions: doses up to 10 μg/ml, 5 days
Protocol: Data represent mean±SD of triplicate samples. […] Tumor volumes were recorded as indicated. C, Athymic nude mice bearing 4-day-established B16 tumors were subjected to differential treatments as in B. Tumor volumes were recorded as indicated.
L5, L6 and L6 analogs (Chembridge), mouse IFNγ ELISPOT Kit (R & D System) and antibody against pLck-pY394 or pERK1/2 (Cell Signaling) were purchased from commercial sources. Human Jurkat T cell line and murine B16 melanoma cell line (ATCC) and other cancer cell lines were maintained in […] culture medium supplemented with 10% fetal calf serum (FCS). The effects of chemical compounds on cancer cell growth in culture were quantified by MTT assays following our established procedures.

[4] = tested on: spleen pLck and IFNγ+ cells; test: in vivo induction of spleen pLck and IFNγ+ cells in mice; set-up: species or system mouse
Protocol: Spleens were harvested one hour post-treatment on day 4 and processed into splenocytes, which were used for assessing pLck levels by SDS-PAGE/Western blotting and for quantification of IFNγ+ cells by ELISPOT assays. Mice were also treated with L5 (˜10 mg/kg body weight, daily, s. c., n=2) to evaluate the toxicity of the compounds in vivo.

[5] = tested on: B16 melanoma tumors
Protocol: Tumor volume (n=5) was measured during the study period and calculated using the formula for a prolate spheroid. Student's t test was used for assessing the significance of tumor volume differences among differential treatment groups. Mouse viability (daily) and body weights (weekly) were also recorded during the study period. Major internal organs of the mice were inspected visually upon their termination at the end of the experiment.
To assess anti-tumor activity, C57BL/6J mice (˜8-week old, female, Taconic Farms, Germantown, N.Y.) were inoculated (s. c.) at the flanks with B16 melanoma cells (4×10^4 cells/site). […] Tumor volume (n=5) was measured during the study period and calculated using the formula for a prolate spheroid. Student's t test was used for assessing the significance of tumor volume differences among differential treatment groups. Mouse viability (daily) and body weights (weekly) were also recorded during the study period. Major internal organs of the mice were inspected visually upon their termination at the end of the experiment.

[6] = ~3 mg/kg body weight, s.c., daily, 4 days

Q: What does the source list for `O=C1C=CC(=O)C(c2cc(Cl)ccc2Cl)=C1` [L5]?
A: maximal induction of IFNγ+ cells in human peripheral blood ([1]; 8 μg/ml): 20 fold; effectiveness relative to SSG in inducing IFNγ+ cells ([1]; maximal induction at a comparable dose, human peripheral blood): ~20 fold; effect on pLck-pY505 [2]: little effects; direct toxicity against B16 cells in culture [3]: little direct toxicity; effect on splenocyte pLck in treated mice ([4]; 1 mg/kg of body weight): minor effect; spleen IFNγ+ cells increase in treated mice [4, 6]: approximately 3 fold; splenocyte pLck increase in treated mice [4, 6]: ~3.3 fold; B16 tumor growth inhibition versus control ([5]; 1 mg/kg/daily, M-F/wk, oral, day 22): ~9%; growth inhibition of B16 tumors versus control ([5]; 3 mg/kg/day, oral, M-F/week, end of study): ~83%; tolerance of treated tumor mice (behavior, gross anatomy) ([5]; mouse, in vivo): no apparent abnormality
